Data as given in the NIST ThermoML archive (doi:10.1021/je400184t).
± gives the expanded uncertainty stated by the source.

Assay: xn = mol fraction of the nth substance listed
Settings: 101 kPa, Liquid, Vibrating tube method

In the case of Cc1ccccc1 [toluene] + CCCCCCC, the mass density (298.15 K, x2 = 0) is reported as 862.222 ± 0.21 kg/m3, the mass density (298.15 K, x2 = 0.00177) is reported as 861.767 ± 0.21 kg/m3 and the mass density (298.15 K, x2 = 0.01118) is reported as 859.353 ± 0.21 kg/m3. It also gave a mass density (298.15 K, x2 = 0.0267) of 855.387 ± 0.22 kg/m3, a mass density (298.15 K, x2 = 0.05849) of 847.515 ± 0.22 kg/m3 and a mass density (298.15 K, x2 = 0.1297) of 830.567 ± 0.22 kg/m3. The mass density (298.15 K, x2 = 0.2059) was 813.369 ± 0.22 kg/m3, the mass density (298.15 K, x2 = 0.2752) was 798.596 ± 0.23 kg/m3 and the mass density (298.15 K, x2 = 0.3604) was 781.402 ± 0.23 kg/m3. The mass density (298.15 K, x2 = 0.4494) was 764.554 ± 0.23 kg/m3, the mass density (298.15 K, x2 = 0.4718) was 760.485 ± 0.24 kg/m3 and the mass density (298.15 K, x2 = 0.6659) was 727.559 ± 0.25 kg/m3. For the same compound, the mass density (298.15 K, x2 = 0.8166) was 704.661 ± 0.25 kg/m3, the mass density (298.15 K, x2 = 0.9094) was 691.588 ± 0.26 kg/m3 and the mass density (298.15 K, x2 = 0.9624) was 684.471 ± 0.26 kg/m3. For the same compound, the mass density (298.15 K, x2 = 0.9968) was 679.955 ± 0.26 kg/m3.

CN(CCO)CCO [N-methyldiethanolamine] + c1ccncc1 gave a mass density (288.15 K, x2 = 0) of 1046.36 ± 0.21 kg/m3, a mass density (288.15 K, x2 = 0.07502) of 1041.45 ± 0.21 kg/m3 and a mass density (288.15 K, x2 = 0.1844) of 1034.44 ± 0.2 kg/m3. For the same compound, the mass density (288.15 K, x2 = 0.3178) was 1025.81 ± 0.2 kg/m3, the mass density (288.15 K, x2 = 0.4447) was 1018 ± 0.2 kg/m3 and the mass density (288.15 K, x2 = 0.5708) was 1010.68 ± 0.2 kg/m3. For the same compound, the mass density (288.15 K, x2 = 0.6945) was 1003.92 ± 0.2 kg/m3, the mass density (288.15 K, x2 = 0.8095) was 997.843 ± 0.2 kg/m3 and the mass density (288.15 K, x2 = 0.8886) was 993.774 ± 0.2 kg/m3. The mass density (288.15 K, x2 = 0.9597) was 990.221 ± 0.2 kg/m3, the mass density (298.15 K, x2 = 0) was 1036.81 ± 0.21 kg/m3 and the mass density (298.15 K, x2 = 0.04) was 1034.22 ± 0.21 kg/m3. The mass density (298.15 K, x2 = 0.1) was 1030.39 ± 0.2 kg/m3, the mass density (298.15 K, x2 = 0.2183) was 1023.03 ± 0.2 kg/m3 and the mass density (298.15 K, x2 = 0.33) was 1016.1 ± 0.2 kg/m3. The mass density (298.15 K, x2 = 0.5265) was 1004.45 ± 0.2 kg/m3, the mass density (298.15 K, x2 = 0.6) was 1000.15 ± 0.2 kg/m3 and the mass density (298.15 K, x2 = 0.7687) was 990.603 ± 0.2 kg/m3. It also gave a mass density (298.15 K, x2 = 0.9059) of 983.032 ± 0.2 kg/m3, a mass density (298.15 K, x2 = 0.9582) of 980.414 ± 0.2 kg/m3 and a mass density (353.15 K, x2 = 0) of 994.015 ± 0.2 kg/m3. It also gave a mass density (353.15 K, x2 = 0.01699) of 992.733 ± 0.2 kg/m3, a mass density (353.15 K, x2 = 0.07502) of 988.525 ± 0.2 kg/m3 and a mass density (353.15 K, x2 = 0.1844) of 980.64 ± 0.2 kg/m3. It also gave a mass density (353.15 K, x2 = 0.3178) of 971.05 ± 0.2 kg/m3, a mass density (353.15 K, x2 = 0.4447) of 961.905 ± 0.2 kg/m3 and a mass density (353.15 K, x2 = 0.5708) of 952.805 ± 0.21 kg/m3. For the same compound, the mass density (353.15 K, x2 = 0.6945) was 943.917 ± 0.21 kg/m3, the mass density (353.15 K, x2 = 0.8095) was 935.616 ± 0.21 kg/m3 and the mass density (353.15 K, x2 = 0.8886) was 930.006 ± 0.21 kg/m3. For the same compound, the mass density (353.15 K, x2 = 0.9597) was 924.867 ± 0.21 kg/m3.

For NCCO [2-aminoethan-1-ol] + c1ccncc1, the mass density (288.15 K, x2 = 0) was 1019.87 ± 0.2 kg/m3, the mass density (288.15 K, x2 = 0.02208) was 1018.83 ± 0.2 kg/m3 and the mass density (288.15 K, x2 = 0.03932) was 1018.01 ± 0.2 kg/m3. The mass density (288.15 K, x2 = 0.06973) was 1016.73 ± 0.2 kg/m3, the mass density (288.15 K, x2 = 0.1369) was 1014.03 ± 0.2 kg/m3 and the mass density (288.15 K, x2 = 0.2147) was 1011.06 ± 0.2 kg/m3. For the same compound, the mass density (288.15 K, x2 = 0.3455) was 1006.12 ± 0.2 kg/m3, the mass density (288.15 K, x2 = 0.4414) was 1002.7 ± 0.2 kg/m3 and the mass density (288.15 K, x2 = 0.5819) was 998.105 ± 0.2 kg/m3. It also gave a mass density (288.15 K, x2 = 0.6767) of 995.328 ± 0.2 kg/m3, a mass density (288.15 K, x2 = 0.79) of 992.252 ± 0.2 kg/m3 and a mass density (288.15 K, x2 = 0.878) of 990.097 ± 0.2 kg/m3. For the same compound, the mass density (288.15 K, x2 = 0.96) was 988.258 ± 0.2 kg/m3, the mass density (298.15 K, x2 = 0) was 1012.12 ± 0.2 kg/m3 and the mass density (298.15 K, x2 = 0.01329) was 1011.37 ± 0.2 kg/m3. It also gave a mass density (298.15 K, x2 = 0.03932) of 1010.09 ± 0.2 kg/m3, a mass density (298.15 K, x2 = 0.06973) of 1008.71 ± 0.2 kg/m3 and a mass density (298.15 K, x2 = 0.1369) of 1005.81 ± 0.2 kg/m3. The mass density (298.15 K, x2 = 0.2147) was 1002.59 ± 0.2 kg/m3, the mass density (298.15 K, x2 = 0.3455) was 997.334 ± 0.2 kg/m3 and the mass density (298.15 K, x2 = 0.4414) was 993.687 ± 0.2 kg/m3. It also gave a mass density (298.15 K, x2 = 0.5819) of 988.794 ± 0.2 kg/m3, a mass density (298.15 K, x2 = 0.6767) of 985.804 ± 0.2 kg/m3 and a mass density (298.15 K, x2 = 0.79) of 982.566 ± 0.2 kg/m3. For the same compound, the mass density (298.15 K, x2 = 0.878) was 980.237 ± 0.2 kg/m3, the mass density (298.15 K, x2 = 0.9817) was 977.805 ± 0.2 kg/m3 and the mass density (353.15 K, x2 = 0) was 968.332 ± 0.2 kg/m3. For the same compound, the mass density (353.15 K, x2 = 0.02208) was 966.667 ± 0.2 kg/m3, the mass density (353.15 K, x2 = 0.03932) was 965.353 ± 0.2 kg/m3 and the mass density (353.15 K, x2 = 0.06973) was 963.408 ± 0.2 kg/m3. The mass density (353.15 K, x2 = 0.1369) was 959.323 ± 0.2 kg/m3, the mass density (353.15 K, x2 = 0.2147) was 954.908 ± 0.2 kg/m3 and the mass density (353.15 K, x2 = 0.3455) was 947.883 ± 0.21 kg/m3. It also gave a mass density (353.15 K, x2 = 0.4414) of 943.004 ± 0.21 kg/m3, a mass density (353.15 K, x2 = 0.5819) of 936.439 ± 0.21 kg/m3 and a mass density (353.15 K, x2 = 0.6767) of 932.426 ± 0.21 kg/m3. It also gave a mass density (353.15 K, x2 = 0.79) of 928.035 ± 0.21 kg/m3, a mass density (353.15 K, x2 = 0.878) of 924.973 ± 0.21 kg/m3 and a mass density (353.15 K, x2 = 0.96) of 922.401 ± 0.21 kg/m3.
